Measured values from patent publication US8609870B2, “Treating various disorders using TrkB agonists” (Emory University, priority 2008, dated 2013).

Tests used:
TrkB [1] = experiment: TrkB phosphorylation in hippocampal neurons (immunofluorescent staining, immunoblotting); type: cell-based; details: hippocampal neurons
Description: Unless specifically described, primary hippocampal neurons are seeded on poly-L lysine coated coverslips in a 12-well plate. After 7 days in vitro, the neurons are treated with 100 ng/ml BDNF or variety of flavone compounds (1 μM) for 30 minutes, and then are washed with PBS. Cells are fixed with 3% formaldehyde in PBS at room temperature for 10 minutes. The cells then are permeabilized and blocked by 0.4% Triton X-100 and 2% FBS in PBS at room temperature for 15 minutes, are washed with PBS three times, and are treated with anti-MAP2 (1:200) and anti-phospho-TrkB antibodies (1:500). After staining with FITC- or Rhodamine-conjugated secondary antibody, the coverslips are mounted on slides. Fluorescent images are taken by a fluorescence microscope.
BDNF binding to TrkB induces its autophosphorylation and, subsequently, activation of downstream kinase pathways including MAPK and PI3/Akt. […] To examine whether an identified active compound stimulates TrkB-mediated downstream signaling cascades, Western analysis is performed and the activation of Akt and Erk also is monitored. […] To probe the time course of TrkB activation triggered by an identified active compound, hippocampal neurons are treated with an identified active compound at 500 nM and phosphorylation of Erk and Akt is determined over time by Western analysis. […]

TrkA = TrkA (Mus musculus, UniProt Q3UFB7); experiment: TrkA activation in cortical neurons from knockout mouse pups; type: cell-based; set-up: endogenous in cells; host or cells: primary cortical neurons from mouse pups
Chain of TrkA (Q3UFB7 34-799): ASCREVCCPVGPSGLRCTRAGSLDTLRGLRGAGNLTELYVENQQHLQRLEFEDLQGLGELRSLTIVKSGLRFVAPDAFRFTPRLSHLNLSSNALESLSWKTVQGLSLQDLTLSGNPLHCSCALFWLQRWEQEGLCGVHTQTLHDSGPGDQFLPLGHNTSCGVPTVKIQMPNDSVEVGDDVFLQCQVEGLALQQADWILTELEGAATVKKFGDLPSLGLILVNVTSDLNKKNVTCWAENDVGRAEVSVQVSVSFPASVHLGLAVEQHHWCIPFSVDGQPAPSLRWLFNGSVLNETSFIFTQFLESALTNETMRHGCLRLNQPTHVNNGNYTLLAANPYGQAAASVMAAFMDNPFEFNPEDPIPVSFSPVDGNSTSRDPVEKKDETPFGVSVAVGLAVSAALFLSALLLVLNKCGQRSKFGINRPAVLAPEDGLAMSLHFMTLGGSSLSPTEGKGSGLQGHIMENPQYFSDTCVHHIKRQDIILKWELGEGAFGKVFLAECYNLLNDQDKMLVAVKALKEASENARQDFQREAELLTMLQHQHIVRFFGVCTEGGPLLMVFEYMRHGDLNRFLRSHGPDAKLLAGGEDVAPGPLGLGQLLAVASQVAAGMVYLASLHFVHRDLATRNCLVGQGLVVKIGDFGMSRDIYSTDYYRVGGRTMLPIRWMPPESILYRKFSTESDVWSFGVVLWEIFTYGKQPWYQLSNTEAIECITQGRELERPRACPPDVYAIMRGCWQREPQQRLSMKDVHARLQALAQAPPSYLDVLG

TrkB [2] = biological target: T1, TrkB (Homo sapiens, UniProt Q16620); experiment: TrkB dimerization assay (GST pull-down, transfected HEK293 cells); type: cell-based
T1 construct: expressed in transfected cells; host or cells: HEK293
T1 sequence (Q16620 32-822, species assumed): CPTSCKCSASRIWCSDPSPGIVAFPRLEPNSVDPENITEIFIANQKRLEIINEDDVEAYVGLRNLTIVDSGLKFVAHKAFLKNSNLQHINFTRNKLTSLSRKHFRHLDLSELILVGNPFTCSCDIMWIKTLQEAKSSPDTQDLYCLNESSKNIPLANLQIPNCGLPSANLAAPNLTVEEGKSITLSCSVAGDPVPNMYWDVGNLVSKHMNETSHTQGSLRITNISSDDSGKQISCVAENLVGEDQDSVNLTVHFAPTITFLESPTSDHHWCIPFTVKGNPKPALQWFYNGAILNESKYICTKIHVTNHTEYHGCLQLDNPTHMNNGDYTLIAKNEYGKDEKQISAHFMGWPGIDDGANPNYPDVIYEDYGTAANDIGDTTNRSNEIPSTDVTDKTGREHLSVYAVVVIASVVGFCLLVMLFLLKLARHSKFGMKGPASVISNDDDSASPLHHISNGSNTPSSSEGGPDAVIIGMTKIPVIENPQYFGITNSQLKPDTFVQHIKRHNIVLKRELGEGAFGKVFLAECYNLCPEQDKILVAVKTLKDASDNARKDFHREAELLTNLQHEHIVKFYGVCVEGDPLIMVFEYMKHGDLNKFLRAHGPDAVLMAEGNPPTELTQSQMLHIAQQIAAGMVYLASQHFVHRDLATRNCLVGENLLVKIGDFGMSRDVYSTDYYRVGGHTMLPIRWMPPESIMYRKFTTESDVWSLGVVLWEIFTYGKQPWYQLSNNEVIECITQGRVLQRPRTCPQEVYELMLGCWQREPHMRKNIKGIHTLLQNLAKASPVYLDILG
T1 sequence (Q16620 32-822, species assumed): as above
Description: HEK293 cells transfected with GST-TrkB and HA-TrkA or TrkB were washed once in PBS, and lysed in 1 ml lysis buffer (50 mM Tris, pH 7.4, 150 mM NaCl, 1 mM EDTA, 0.5% Triton X-100, 1.5 mM Na3VO4, 50 mM NaF, 10 mM sodium pyrophosphate, 10 mM sodium β-glycerophosphate, 1 mM phenylmethylsulfonyl fluoride (PMSF), […], […] leupeptin, […] pepstatin A), and centrifuged for 10 minutes at 14,000×g at 4° C. The supernatant was then transferred to a fresh tube and transfected TrkB receptor was pulled down with glutathione beads. The coprecipitated proteins were resolved on SDS-PAGE. The samples were transferred to a nitrocellular membrane, and immunoblotting analysis was performed with a variety of antibodies.
BDNF is known to bind the TrkB receptor and provoke its dimerization (Barbacid, J. Neurobiol., 25:1386-1403, 1994; Klein et al, Cell, 66:395-403, 1991). To explore whether an identified active compound triggers TrkB receptor dimerization, HEK293 cells are cotransfected with GST-TrkB and HA-TrkB or HA-TrkA. The cells then are treated with BDNF or an identified active compound (0.5 μM) for 30 minutes. […]

hippocampal neurons = experiment: Oxygen-glucose deprivation (OGD) apoptosis in hippocampal neurons; type: cell-based
[3] = biological target: TrkB extra-cellular domain (ECD) (Homo sapiens, UniProt Q16620); experiment: [3H]-deoxygedunin ligand binding assay, TrkB ECD (Scatchard plot)
Chain of TrkB extra-cellular domain (ECD) (Q16620 32-430 limits assumed): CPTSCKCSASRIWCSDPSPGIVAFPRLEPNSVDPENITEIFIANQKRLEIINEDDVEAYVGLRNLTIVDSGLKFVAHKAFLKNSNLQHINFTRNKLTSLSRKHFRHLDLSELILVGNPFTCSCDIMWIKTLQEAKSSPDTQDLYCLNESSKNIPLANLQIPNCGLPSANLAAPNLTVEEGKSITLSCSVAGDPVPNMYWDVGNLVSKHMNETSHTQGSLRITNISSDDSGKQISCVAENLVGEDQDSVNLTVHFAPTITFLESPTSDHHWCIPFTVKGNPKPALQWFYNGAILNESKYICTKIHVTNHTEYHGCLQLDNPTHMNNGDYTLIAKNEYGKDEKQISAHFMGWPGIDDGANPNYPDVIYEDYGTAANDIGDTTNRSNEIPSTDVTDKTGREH
Description: Purified TrkB ECD or ICD proteins (10 μg/each) were incubated with different [^3H-deoxygedunin] in 1 ml binding buffer (0.05 M Na/K phosphate buffer (pH 7.1), 200 mM NaCl) (1 nM [^3H]deoxygedunin˜82300 cpm) at 4° C. for 10 minutes. After incubation, the reaction mixture was loaded on filter paper and washed with 3×5 ml Tris buffer (100 mM Tris, pH 7.1). The dried filter paper was put into a small vial and subjected to liquid scintillation counter analysis. The value of the dissociation constant and the number of sites were obtained from Scatchard plots by using the equation r/[L]free=n/Kd−r/Kd, where r is the ratio of the concentration of bound ligand to the total protein concentration and n is the number of binding sites.
To determine whether an identified active compound physically and directly binds to the TrkB receptor, in vitro binding assays can be conducted with purified TrkB extracellular domain (ECD) and intracellular domain (ICD) recombinant proteins. Purified TrkB ECD and ICD (10 μg of each) are incubated with different concentrations of ^3H-labeled identified active compound in 1 ml of binding buffer (0.05M Na/K phosphate buffer, pH 7.1, 200 mM NaCl) at 4° C. for 10 minutes. After the incubation, the reaction mixture is loaded on filter paper. The mixture is washed three times with Tris buffer (100 mM Tris, pH 7.1), and the dried filter paper is put into a small vial and subjected to liquid scintillation counter analysis. […] The value of the dissociate constant and the number of sites will then be obtained from Scatchard plots using the equation r/[L]free=n/Kd−r/Kd, where r is the ratio of the concentration of bound ligand to the total protein concentration and n is the number of binding sites.
To determine whether deoxygedunin binds the intra-cellular domain (ICD) or extra-cellular domain (ECD) of the TrkB receptor, ligand binding assays with [^3H]-deoxygedunin were performed. […] The coprecipitated HA-TrkB was also prominently tyrosine phosphorylated (see FIG. 14, 3rd panel).

Structure (SMILES): CC(=O)O[C@@H]1C[C@H]2C(C)(C)C(=O)C=C[C@]2(C)[C@H]2CC[C@]3(C)C(=CC(=O)O[C@H]3c3ccoc3)[C@@]21C [deoxygedunin]
- TrkB phosphorylation (TrkB [1]): strong TrkB phosphorylation
- TrkA activation (TrkA; both wild-type and TrkC knockout neurons): not TrkA activation
- TrkA activation (TrkA; cortical neurons (pups of TrkB +/− mice)): not TrkA receptor
- TrkB dimerization (TrkB [2]): robustly provoked TrkB dimerization with an effect even stronger than BDNF
- protective effects on hippocampal neurons under OGD (hippocampal neurons; apoptotic ratio compared to BDNF and DMSO): potent protective effects
- titration assay under OGD (hippocampal neurons; dose titration): protects neurons in a dose-dependent manner
- Kd ([3]; Scatchard plot analysis, read-out: binding constant Kd): 1400 nM
- major binding site in TrkB ECD (truncation assays) ([3]; TrkB ECD truncation mutants): Ig2 domain
